In PubChem BioAssay (NCI) one finds TGI data, which are given here for 24 compounds.

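96-well plates; 48 h exposure; 5 concentrations. Endpoints by linear interpolation between flanking doses. Not reached: highest tested concentration assigned. TGI marks complete inhibition of growth.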

The test system of one assay is SK-MEL-28 melanoma. The assay is described as follows: inhibition of tumour cell growth, NCI panel, 48 h.
Turning to `CC(=O)NC(Cc1ccc(O)cc1)C(=O)O` (stereo unspecified), the TGI is > 100 µM.

Compound `O=C1CSC(c2ccc(Cl)cc2)N1c1ccc(Oc2ccc(Cl)cc2)c(Cl)c1` (stereo unspecified) registered a TGI of 35.4 µM.

For the compound `COC(=O)C([C@H](NC1(c2ccccc2)c2ccccc2-c2ccccc21)C(=O)OC)N(NC(=O)OCc1ccccc1)C(=O)OCc1ccccc1` (mixture of isomers), the TGI was > 100 µM.

Consider `CC[C@@H]1CC[C@@H]2[C@H](CC[C@]3(C)[C@@H](OC(C)=O)CC[C@@H]23)[C@H]1COC(C)=O`, for which the TGI is > 100 µM.

On to `Cc1ccc(N=NC(=Nc2ccccc2)c2ccc(N(CCC#N)CCC#N)cc2)cc1`, for which the TGI was > 100 µM.

On to `O=c1ccc(-c2ccccc2)n[nH]1`, for which the TGI is > 100 µM.

As to `CC(=O)O[C@@H]1[C@H](C(C)C)[C@@H](OC(C)=O)C/C(C)=C/CC[C@]2(C)O[C@@H]12`, the TGI is > 100 µM.

On to `CN1CCc2cc(N)cc3c2C1Cc1ccc(O)c(O)c1-3` (stereo unspecified), for which the TGI is > 100 µM.

In turn, `CC(C)=CCc1c2c(c3occ(-c4ccc(O)cc4)c(=O)c3c1O)CC(C(C)(C)O)O2` (stereo unspecified) came in with a TGI of 58.5 µM.

Consider `CC1(C)N=[N+]([O-])C1(C)C`, for which the TGI was > 100 µM.

In the case of `COc1ccc(C2CC(c3c(O)ccc4ccccc34)=NN2C(C)=O)cc1OC` (stereo unspecified), the TGI is > 100 µM.

As to `C1CN(c2nc3c(nnc4nc(N5CCOCC5)sc43)s2)CCO1`, the TGI was > 100 µM.

For the compound `COc1cc2nc3n(c(=O)c2cc1OC)-c1ccc([N+](=O)[O-])cc1C3=O`, the TGI is > 100 µM.

For the compound `NC(N)=N/N=C/c1c(-c2ccc(N)cc2)nc2sccn12`, the TGI was > 100 µM.

As to `COc1cc(Br)cc2cc(-c3cn4ccsc4n3)c(=O)oc12`, the TGI was > 100 µM.

Take `COc1ccc(N/N=C2\CCOc3ccc(C)cc3C2=O)cc1`: the TGI was > 100 µM.

For `COC(=O)c1c(C)cccc1C1CN=NC12Cc1ccc(C)cc1C2=O` (stereo unspecified), the TGI is > 100 µM.

In the case of `ClCCN1CCC2(CC1)SSC1(CCN(CCCl)CC1)S2`, the TGI is > 100 µM.

On to `C=CC1(C)CCC2C(=CCC3C2(C)CC(O)C(O)C3(C)COC2OC(C(=O)O)C(O)C(O)C2O)C1` (stereo unspecified) (tested in a mixture with another compound), for which the TGI was > 100 µM.

In the case of `C=C1C(=O)O[C@@H]2C(=O)[C@@H](C)CCC/C(C)=C/CC[C@@]3(C)O[C@@H]3C[C@@H]12`, the TGI is > 100 µM.

As to `Nc1nc(SCCc2ccccc2)c2[nH]cnc2n1`, the TGI is > 100 µM.

For the compound `Cc1ccccc1C(=O)N1CCc2c([nH]c3ccccc23)C1`, the TGI was > 100 µM.

As to `Cc1nc2n(c1/C=C1/C(=O)Nc3cccc(Cl)c31)CCS2`, the TGI was > 100 µM.

As to `O=C1CC(NC(=O)C(F)(F)F)c2c(Br)sc(N3CCNCC3)c21` (stereo unspecified), the TGI is > 100 µM.

The test system of another assay is TK-10 renal. The assay is described as follows: inhibition of tumour cell growth, NCI panel, 48 h.
As for `CC(=O)NC(Cc1ccc(O)cc1)C(=O)O` (stereo unspecified), the TGI was > 100 µM.

As for `O=C1CSC(c2ccc(Cl)cc2)N1c1ccc(Oc2ccc(Cl)cc2)c(Cl)c1` (stereo unspecified), the TGI worked out at 33.2 µM.

As to `COC(=O)C([C@H](NC1(c2ccccc2)c2ccccc2-c2ccccc21)C(=O)OC)N(NC(=O)OCc1ccccc1)C(=O)OCc1ccccc1` (mixture of isomers), the TGI was > 100 µM.

Turning to `CC[C@@H]1CC[C@@H]2[C@H](CC[C@]3(C)[C@@H](OC(C)=O)CC[C@@H]23)[C@H]1COC(C)=O`, the TGI was > 100 µM.

With `Cc1ccc(N=NC(=Nc2ccccc2)c2ccc(N(CCC#N)CCC#N)cc2)cc1`, the TGI stood at 74.9 µM.

On to `O=c1ccc(-c2ccccc2)n[nH]1`, for which the TGI was > 100 µM.

As for `CC(=O)O[C@@H]1[C@H](C(C)C)[C@@H](OC(C)=O)C/C(C)=C/CC[C@]2(C)O[C@@H]12`, the TGI is > 100 µM.

For the compound `CN1CCc2cc(N)cc3c2C1Cc1ccc(O)c(O)c1-3` (stereo unspecified), the TGI was > 100 µM.

`CC(C)=CCc1c2c(c3occ(-c4ccc(O)cc4)c(=O)c3c1O)CC(C(C)(C)O)O2` (stereo unspecified) returned a TGI of 30.1 µM.

With `CC1(C)N=[N+]([O-])C1(C)C`, the TGI was > 100 µM.

Take `COc1ccc(C2CC(c3c(O)ccc4ccccc34)=NN2C(C)=O)cc1OC` (stereo unspecified): the TGI was > 100 µM.

On to `C1CN(c2nc3c(nnc4nc(N5CCOCC5)sc43)s2)CCO1`, for which the TGI is > 100 µM.

With `COc1cc2nc3n(c(=O)c2cc1OC)-c1ccc([N+](=O)[O-])cc1C3=O`, the TGI is > 100 µM.

`NC(N)=N/N=C/c1c(-c2ccc(N)cc2)nc2sccn12`: the TGI turned out to be 40.9 µM.

On to `COc1cc(Br)cc2cc(-c3cn4ccsc4n3)c(=O)oc12`, for which the TGI is > 100 µM.

For the compound `COc1ccc(N/N=C2\CCOc3ccc(C)cc3C2=O)cc1`, the TGI is > 100 µM.

On to `COC(=O)c1c(C)cccc1C1CN=NC12Cc1ccc(C)cc1C2=O` (stereo unspecified), for which the TGI was > 100 µM.

`ClCCN1CCC2(CC1)SSC1(CCN(CCCl)CC1)S2` yielded a TGI of 95.5 µM.

On to `C=CC1(C)CCC2C(=CCC3C2(C)CC(O)C(O)C3(C)COC2OC(C(=O)O)C(O)C(O)C2O)C1` (stereo unspecified) (tested in a mixture with another compound), for which the TGI is > 100 µM.

Regarding `C=C1C(=O)O[C@@H]2C(=O)[C@@H](C)CCC/C(C)=C/CC[C@@]3(C)O[C@@H]3C[C@@H]12`, the TGI was determined as 81.6 µM.

In turn, `Nc1nc(SCCc2ccccc2)c2[nH]cnc2n1` displayed a TGI of 67.9 µM.

For `Cc1ccccc1C(=O)N1CCc2c([nH]c3ccccc23)C1`, the TGI came out at 80.2 µM.

For `Cc1nc2n(c1/C=C1/C(=O)Nc3cccc(Cl)c31)CCS2`, the TGI is > 100 µM.

`O=C1CC(NC(=O)C(F)(F)F)c2c(Br)sc(N3CCNCC3)c21` (stereo unspecified): the TGI was > 100 µM.

A further assay has as its system CAKI-1 renal. In words: inhibition of tumour cell growth, NCI panel, 48 h.
For `CC(=O)NC(Cc1ccc(O)cc1)C(=O)O` (stereo unspecified), the TGI is > 100 µM.

`O=C1CSC(c2ccc(Cl)cc2)N1c1ccc(Oc2ccc(Cl)cc2)c(Cl)c1` (stereo unspecified) returned a TGI of 26 µM.

With `COC(=O)C([C@H](NC1(c2ccccc2)c2ccccc2-c2ccccc21)C(=O)OC)N(NC(=O)OCc1ccccc1)C(=O)OCc1ccccc1` (mixture of isomers), the TGI is > 100 µM.

For `CC[C@@H]1CC[C@@H]2[C@H](CC[C@]3(C)[C@@H](OC(C)=O)CC[C@@H]23)[C@H]1COC(C)=O`, the TGI was > 100 µM.

On to `Cc1ccc(N=NC(=Nc2ccccc2)c2ccc(N(CCC#N)CCC#N)cc2)cc1`, for which the TGI was > 100 µM.

Consider `O=c1ccc(-c2ccccc2)n[nH]1`, for which the TGI is > 100 µM.

Consider `CC(=O)O[C@@H]1[C@H](C(C)C)[C@@H](OC(C)=O)C/C(C)=C/CC[C@]2(C)O[C@@H]12`, for which the TGI was > 100 µM.

As to `CN1CCc2cc(N)cc3c2C1Cc1ccc(O)c(O)c1-3` (stereo unspecified), the TGI was > 100 µM.

`CC(C)=CCc1c2c(c3occ(-c4ccc(O)cc4)c(=O)c3c1O)CC(C(C)(C)O)O2` (stereo unspecified) yielded a TGI of 35.7 µM.

For `CC1(C)N=[N+]([O-])C1(C)C`, the TGI was > 100 µM.

As for `COc1ccc(C2CC(c3c(O)ccc4ccccc34)=NN2C(C)=O)cc1OC` (stereo unspecified), the TGI is > 100 µM.

Consider `C1CN(c2nc3c(nnc4nc(N5CCOCC5)sc43)s2)CCO1`, for which the TGI is > 100 µM.

`COc1cc2nc3n(c(=O)c2cc1OC)-c1ccc([N+](=O)[O-])cc1C3=O` yielded a TGI of 92.1 µM.

With `NC(N)=N/N=C/c1c(-c2ccc(N)cc2)nc2sccn12`, the TGI is > 100 µM.

For `COc1cc(Br)cc2cc(-c3cn4ccsc4n3)c(=O)oc12`, the TGI is > 100 µM.

For `COc1ccc(N/N=C2\CCOc3ccc(C)cc3C2=O)cc1`, the TGI was > 100 µM.

Consider `COC(=O)c1c(C)cccc1C1CN=NC12Cc1ccc(C)cc1C2=O` (stereo unspecified), for which the TGI was > 100 µM.

Consider `ClCCN1CCC2(CC1)SSC1(CCN(CCCl)CC1)S2`, for which the TGI came out at 33.4 µM.
